Results reported in patent US12560591B2, “Methods of treatment with CD8 T cell-mediated immune therapy” (Providence Health & Services—Oregon, priority 2019, dated 2026).

Tested on: MC38 tumors
Experiment: MC38 tumor model in ALK5^ΔCD8 mice, survival and tumor growth
Assay type: in vivo, mouse
Settings: addition of LY2157299 in ALK5^ΔCD8 mice with MC38 tumors, FIGS. 5B and 5C
Description: FIG. 5A is a schematic showing the treatment strategy in the MC38 tumor model. C57BL/6 Wild-type (n=6-9/group) and ALK5^ΔCD8 (n=4-10/group) mice were implanted subcutaneously with MC38 tumor cells followed four days later by injection of some groups with anti-CD8a mAb to specifically deplete CD8^+ T cells. In other groups, mice also received LY2157299 via oral gavage twice daily (150 mg/kg) for seven days. Survival of mice was monitored until day 90 (FIG. 5B). […] The number of tumors cured over the total number of tumor-bearing mice is shown in the top right of each graph. Data from a representative experiment is shown reflective of two independent experiments total. ***=p<0.001.
Animal studies and cell culture: C57BL/6, BALB/c, CD8Cre, Lyz2Cre, and Foxp3-eGFP-CreERT2 mice were purchased from the Jackson Laboratories (Bar Harbor, Maine). ALK5flox/flox mice were a generous gift from Andrew Weinberg (Providence Cancer Center). All transgenic mice were on C57BL/6 background. […] Tumors were measured 3×/week until they reached the survival end-point of 144 mm^2. […] Following single cell preparation, cells were washed and resuspended in FACS buffer (1×PBS, 1% BSA, 2 mM EDTA) and counted prior to FACS staining using a Guava EasyCyte cytometer (Millipore). […]
Whether the improved survival and radiosensitivity observed in ALK5^ΔCD8 mice was dependent on CD8^+ T cells was next evaluated. […]

## Cc1cccc(-c2nn3c(c2-c2ccnc4ccc(C(N)=O)cc24)CCC3)n1 [LY2157299]
  survival or tumor growth kinetics: no improvement in survival or tumor growth kinetics
